Laboratory results taken from patent US8158636B2, “Compounds and methods for kinase modulation, and indications therefor” (Plexxikon Inc., priority 2008, dated 2012).

Legend:
Format in all cases: biochemical
[1] = molecular target: Kit (Homo sapiens, UniProt P10721); assay: Kinase activity assay, Kit; conditions: Table 1j; read-out: activity toward kinase Kit, IC50
Text: (§1) Assays for the activity of kinases, including, but not limited to, Fms, Kit, B-Raf, B-Raf V600E, c-Raf-1, and TrkA are known in the art, for example as described in US Patent Publication Number US20070032519 and U.S. patent application Ser. No. 11/473,347 (see also, PCT publication WO2007002433), the disclosures of which are hereby incorporated by reference with respect to such assays.

[2] = molecular target: Kdr (Homo sapiens, UniProt P35968); assay: Kinase activity assay, Kdr; conditions: Table 1i; read-out: activity toward kinase Kdr, IC50
Text: as §1

[3] = molecular target: B-Raf V600E (Homo sapiens, UniProt P15056, V600E); assay: Kinase activity assay, B-Raf V600E; conditions: Table 1c; read-out: activity toward kinase B-Raf V600E, IC50
Text: as §1

[4] = molecular target: Fms (Homo sapiens, UniProt P07333); assay: Kinase activity assay, Fms; conditions: Table 1h; read-out: activity toward kinase Fms, IC50
Text: as §1

[5] = molecular target: TrkA (Homo sapiens, UniProt P04629); assay: Kinase activity assay, TrkA; conditions: Table 1m; read-out: activity toward kinase TrkA, IC50
Text: as §1

Sequence of Fms (P07333 20-972): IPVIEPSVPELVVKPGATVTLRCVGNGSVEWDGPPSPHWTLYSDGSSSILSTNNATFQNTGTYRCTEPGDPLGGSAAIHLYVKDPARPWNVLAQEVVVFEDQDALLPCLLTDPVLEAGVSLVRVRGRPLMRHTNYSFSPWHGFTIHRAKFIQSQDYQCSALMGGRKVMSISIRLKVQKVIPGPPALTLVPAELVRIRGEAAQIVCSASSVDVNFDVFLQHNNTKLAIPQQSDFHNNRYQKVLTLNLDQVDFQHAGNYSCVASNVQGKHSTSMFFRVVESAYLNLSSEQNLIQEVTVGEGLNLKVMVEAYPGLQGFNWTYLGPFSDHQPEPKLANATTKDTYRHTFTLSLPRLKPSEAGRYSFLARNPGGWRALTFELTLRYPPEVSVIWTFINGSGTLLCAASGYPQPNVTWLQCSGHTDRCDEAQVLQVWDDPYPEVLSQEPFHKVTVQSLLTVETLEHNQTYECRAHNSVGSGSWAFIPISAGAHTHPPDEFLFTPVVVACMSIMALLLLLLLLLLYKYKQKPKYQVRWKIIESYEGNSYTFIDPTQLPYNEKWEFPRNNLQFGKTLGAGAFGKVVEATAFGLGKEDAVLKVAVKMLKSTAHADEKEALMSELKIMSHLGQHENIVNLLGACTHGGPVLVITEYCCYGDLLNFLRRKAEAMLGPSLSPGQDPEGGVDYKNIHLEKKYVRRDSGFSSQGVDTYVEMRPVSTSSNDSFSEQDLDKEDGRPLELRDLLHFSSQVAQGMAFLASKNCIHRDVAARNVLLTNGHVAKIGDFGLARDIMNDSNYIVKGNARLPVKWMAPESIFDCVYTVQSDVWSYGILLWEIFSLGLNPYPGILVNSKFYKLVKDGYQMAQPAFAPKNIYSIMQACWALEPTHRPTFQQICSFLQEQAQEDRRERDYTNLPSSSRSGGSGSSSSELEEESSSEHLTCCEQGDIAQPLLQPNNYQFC
Sequence of Kdr (P35968 20-1356): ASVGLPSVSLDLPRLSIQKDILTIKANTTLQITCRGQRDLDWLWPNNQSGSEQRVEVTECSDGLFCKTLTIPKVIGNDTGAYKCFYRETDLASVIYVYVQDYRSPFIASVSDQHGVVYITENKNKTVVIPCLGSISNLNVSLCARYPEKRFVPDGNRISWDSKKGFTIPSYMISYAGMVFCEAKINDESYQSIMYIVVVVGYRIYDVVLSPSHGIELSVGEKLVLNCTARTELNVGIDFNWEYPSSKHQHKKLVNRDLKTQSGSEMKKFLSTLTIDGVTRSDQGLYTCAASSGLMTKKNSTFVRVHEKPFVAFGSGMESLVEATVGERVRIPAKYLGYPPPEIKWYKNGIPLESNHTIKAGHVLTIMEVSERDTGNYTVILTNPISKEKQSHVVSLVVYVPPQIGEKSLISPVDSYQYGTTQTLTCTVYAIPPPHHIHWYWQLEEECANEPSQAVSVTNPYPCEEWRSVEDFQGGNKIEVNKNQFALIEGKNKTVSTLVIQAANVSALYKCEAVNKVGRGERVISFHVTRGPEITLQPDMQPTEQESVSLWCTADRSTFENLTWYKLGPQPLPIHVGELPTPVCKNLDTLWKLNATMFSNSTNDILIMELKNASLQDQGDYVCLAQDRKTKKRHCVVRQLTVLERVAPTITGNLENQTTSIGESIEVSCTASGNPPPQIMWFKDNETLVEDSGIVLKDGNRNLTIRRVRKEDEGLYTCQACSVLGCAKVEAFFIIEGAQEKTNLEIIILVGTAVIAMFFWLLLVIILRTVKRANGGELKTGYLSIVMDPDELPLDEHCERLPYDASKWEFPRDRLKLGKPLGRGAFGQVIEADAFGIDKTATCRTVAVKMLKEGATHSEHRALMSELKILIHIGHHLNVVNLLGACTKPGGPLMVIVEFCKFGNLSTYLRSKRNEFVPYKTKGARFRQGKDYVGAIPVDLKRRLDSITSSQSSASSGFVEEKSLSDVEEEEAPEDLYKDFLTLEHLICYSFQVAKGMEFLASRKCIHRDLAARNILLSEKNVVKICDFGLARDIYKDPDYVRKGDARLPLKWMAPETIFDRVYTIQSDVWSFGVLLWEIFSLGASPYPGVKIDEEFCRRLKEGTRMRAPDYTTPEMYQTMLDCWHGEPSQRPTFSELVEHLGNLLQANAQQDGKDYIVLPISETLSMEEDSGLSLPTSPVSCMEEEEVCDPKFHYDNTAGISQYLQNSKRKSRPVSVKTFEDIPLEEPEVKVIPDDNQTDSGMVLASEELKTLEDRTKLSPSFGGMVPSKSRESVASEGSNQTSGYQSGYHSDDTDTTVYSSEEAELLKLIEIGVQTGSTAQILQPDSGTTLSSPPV
Sequence of Kit (P10721 26-976): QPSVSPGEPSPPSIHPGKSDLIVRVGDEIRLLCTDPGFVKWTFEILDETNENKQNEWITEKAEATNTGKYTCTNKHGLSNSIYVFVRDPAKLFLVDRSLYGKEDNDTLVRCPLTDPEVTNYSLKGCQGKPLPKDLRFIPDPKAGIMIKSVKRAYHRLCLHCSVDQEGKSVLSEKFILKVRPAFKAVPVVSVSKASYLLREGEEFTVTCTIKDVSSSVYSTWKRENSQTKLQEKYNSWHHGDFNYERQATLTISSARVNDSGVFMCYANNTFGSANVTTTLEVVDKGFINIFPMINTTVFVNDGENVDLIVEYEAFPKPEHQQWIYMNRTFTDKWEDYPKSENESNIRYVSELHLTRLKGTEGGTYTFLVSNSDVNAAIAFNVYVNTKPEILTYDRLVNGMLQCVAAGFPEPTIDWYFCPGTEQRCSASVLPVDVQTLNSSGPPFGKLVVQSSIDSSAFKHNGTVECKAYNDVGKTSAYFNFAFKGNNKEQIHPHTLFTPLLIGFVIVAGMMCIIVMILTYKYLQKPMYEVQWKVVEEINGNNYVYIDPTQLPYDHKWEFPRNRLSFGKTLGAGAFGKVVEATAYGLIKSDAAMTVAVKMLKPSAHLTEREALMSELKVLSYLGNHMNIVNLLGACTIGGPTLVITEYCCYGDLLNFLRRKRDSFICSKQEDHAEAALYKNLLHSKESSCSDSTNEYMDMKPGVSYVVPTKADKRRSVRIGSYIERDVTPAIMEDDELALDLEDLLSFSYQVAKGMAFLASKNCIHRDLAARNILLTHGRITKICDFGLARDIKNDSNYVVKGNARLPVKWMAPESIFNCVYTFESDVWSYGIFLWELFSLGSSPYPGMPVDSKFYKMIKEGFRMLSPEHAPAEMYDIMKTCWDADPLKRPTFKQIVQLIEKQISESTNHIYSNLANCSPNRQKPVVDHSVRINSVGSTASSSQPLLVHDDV
Sequence of TrkA (P04629 33-796): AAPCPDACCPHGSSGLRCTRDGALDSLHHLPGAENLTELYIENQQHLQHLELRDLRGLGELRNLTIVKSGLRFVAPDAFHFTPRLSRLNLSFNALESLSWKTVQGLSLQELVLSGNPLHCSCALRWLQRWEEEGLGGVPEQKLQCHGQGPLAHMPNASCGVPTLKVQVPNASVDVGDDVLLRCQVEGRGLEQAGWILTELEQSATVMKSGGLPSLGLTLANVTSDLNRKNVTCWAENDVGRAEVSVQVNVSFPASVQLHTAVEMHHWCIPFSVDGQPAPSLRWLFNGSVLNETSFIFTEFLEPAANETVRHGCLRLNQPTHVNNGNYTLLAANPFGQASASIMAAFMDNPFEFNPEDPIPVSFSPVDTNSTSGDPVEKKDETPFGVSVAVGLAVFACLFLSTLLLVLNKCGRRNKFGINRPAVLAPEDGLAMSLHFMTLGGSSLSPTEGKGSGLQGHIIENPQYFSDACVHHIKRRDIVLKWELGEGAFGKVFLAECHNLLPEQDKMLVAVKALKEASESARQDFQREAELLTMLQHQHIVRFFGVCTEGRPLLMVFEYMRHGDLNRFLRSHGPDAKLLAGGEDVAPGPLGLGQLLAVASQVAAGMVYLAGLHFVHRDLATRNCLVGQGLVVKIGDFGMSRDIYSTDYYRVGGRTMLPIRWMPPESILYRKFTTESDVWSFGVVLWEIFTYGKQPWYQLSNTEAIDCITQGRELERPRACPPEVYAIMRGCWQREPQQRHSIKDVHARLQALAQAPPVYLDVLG
Sequence of B-Raf V600E (P15056 whole entry V600E): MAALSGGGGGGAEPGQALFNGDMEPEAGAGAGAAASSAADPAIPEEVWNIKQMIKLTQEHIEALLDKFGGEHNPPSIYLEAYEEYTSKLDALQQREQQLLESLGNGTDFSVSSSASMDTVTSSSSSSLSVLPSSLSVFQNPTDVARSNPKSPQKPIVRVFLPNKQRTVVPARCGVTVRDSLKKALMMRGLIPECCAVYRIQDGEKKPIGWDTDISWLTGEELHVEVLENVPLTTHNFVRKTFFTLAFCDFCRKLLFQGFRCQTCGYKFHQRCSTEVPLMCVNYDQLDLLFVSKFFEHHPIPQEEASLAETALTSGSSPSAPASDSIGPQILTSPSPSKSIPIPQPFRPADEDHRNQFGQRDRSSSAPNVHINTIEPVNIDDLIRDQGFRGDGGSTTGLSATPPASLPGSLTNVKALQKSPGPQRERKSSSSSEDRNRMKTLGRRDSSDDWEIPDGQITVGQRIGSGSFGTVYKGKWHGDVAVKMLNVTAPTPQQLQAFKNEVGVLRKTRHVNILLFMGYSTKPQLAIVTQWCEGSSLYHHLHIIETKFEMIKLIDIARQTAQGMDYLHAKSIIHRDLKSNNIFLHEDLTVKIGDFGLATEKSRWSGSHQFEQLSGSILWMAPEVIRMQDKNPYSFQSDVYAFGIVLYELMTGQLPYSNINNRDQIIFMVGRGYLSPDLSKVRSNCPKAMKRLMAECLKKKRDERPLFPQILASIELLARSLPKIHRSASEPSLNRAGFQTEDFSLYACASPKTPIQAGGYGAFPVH

Row | Compound | IC50 [1] | IC50 [2] | IC50 [3] | IC50 [4] | IC50 [5]
1 | C[C@H](Nc1ccc(Cc2c[nH]c3ncncc23)c(F)n1)c1ccc(F)cc1 [P-0016, [(S)-1-(4-Fluoro-phenyl)-ethyl]-[6-fluoro-5-(7H-pyrrolo[2,3-d]pyrimidin-5-ylmethyl)-pyridin-2-yl]-amine] | ≤ 10 µM | ≤ 10 µM | ≤ 10 µM | ≤ 10 µM | –
2 | COc1cc(CNc2ccc(Cc3c[nH]c4ncncc34)c(F)n2)c(F)cn1 [P-0021, (5-Fluoro-2-methoxy-pyridin-4-ylmethyl)-[6-fluoro-5-(7H-pyrrolo[2,3-d]pyrimidin-5-ylmethyl)-pyridin-2-yl]-amine] | – | ≤ 10 µM | ≤ 10 µM | ≤ 10 µM | –
3 | Clc1ccc(CNc2ncc(Cc3c[nH]c4ncncc34)cn2)cn1 [P-0029, (6-Chloro-pyridin-3-ylmethyl)-[5-(7H-pyrrolo[2,3-d]pyrimidin-5-ylmethyl)-pyrimidin-2-yl]-amine] | ≤ 10 µM | ≤ 10 µM | – | ≤ 10 µM | –
4 | c1cc(CNc2ncc(Cc3c[nH]c4ncncc34)cn2)nc(N2CCOCC2)c1 [P-0031, (6-Morpholin-4-yl-pyridin-2-ylmethyl)-[5-(7H-pyrrolo[2,3-d]pyrimidin-5-ylmethyl)-pyrimidin-2-yl]-amine] | ≤ 10 µM | ≤ 10 µM | – | ≤ 10 µM | –
5 | c1cc(CNc2ncc(Cc3c[nH]c4ncncc34)cn2)nc(N2CCCC2)c1 [P-0032, (6-Pyrrolidin-1-yl-pyridin-2-ylmethyl)-[5-(7H-pyrrolo[2,3-d]pyrimidin-5-ylmethyl)-pyrimidin-2-yl]-amine] | ≤ 10 µM | ≤ 10 µM | – | ≤ 10 µM | –
6 | CCc1ccc(CNc2ncc(Cc3c[nH]c4ncncc34)cn2)nc1 [P-0033, (5-Ethyl-pyridin-2-ylmethyl)-[5-(7H-pyrrolo[2,3-d]pyrimidin-5-ylmethyl)-pyrimidin-2-yl]-amine] | ≤ 10 µM | ≤ 10 µM | – | ≤ 10 µM | –
7 | c1cc(CNc2ncc(Cc3c[nH]c4ncncc34)cn2)cc(N2CCOCC2)n1 [P-0036, (2-Morpholin-4-yl-pyridin-4-ylmethyl)-[5-(7H-pyrrolo[2,3-d]pyrimidin-5-ylmethyl)-pyrimidin-2-yl]-amine] | ≤ 10 µM | ≤ 10 µM | – | ≤ 10 µM | –
8 | COc1cc(CNc2ccc(Cc3c[nH]c4ncncc34)c(F)n2)cc(OC)c1OC [P-0037, [6-Fluoro-5-(7H-pyrrolo[2,3-d]pyrimidin-5-ylmethyl)-pyridin-2-yl]-(3,4,5-trimethoxy-benzyl)-amine] | – | ≤ 10 µM | ≤ 10 µM | ≤ 10 µM | –
9 | COc1cncc(CNc2ccc(Cc3c[nH]c4ncncc34)c(F)n2)c1 [P-0040, [6-Fluoro-5-(7H-pyrrolo[2,3-d]pyrimidin-5-ylmethyl)-pyridin-2-yl]-(5-methoxy-pyridin-3-ylmethyl)-amine] | – | – | ≤ 10 µM | ≤ 10 µM | –
10 | Fc1nc(NCc2ccc(Cl)nc2)ccc1Cc1c[nH]c2ncncc12 [P-0045, (6-Chloro-pyridin-3-ylmethyl)-[6-fluoro-5-(7H-pyrrolo[2,3-d]pyrimidin-5-ylmethyl)-pyridin-2-yl]-amine] | ≤ 10 µM | ≤ 10 µM | ≤ 10 µM | ≤ 10 µM | –
11 | Fc1cncc(CNc2ccc(Cc3c[nH]c4ncncc34)c(F)n2)c1 [P-0050, (5-Fluoro-pyridin-3-ylmethyl)-[6-fluoro-5-(7H-pyrrolo[2,3-d]pyrimidin-5-ylmethyl)-pyridin-2-yl]-amine] | – | – | ≤ 10 µM | ≤ 10 µM | –
12 | Fc1nc(NCc2ccc(Br)cn2)ccc1Cc1c[nH]c2ncncc12 [P-0053, (5-Bromo-pyridin-2-ylmethyl)-[6-fluoro-5-(7H-pyrrolo[2,3-d]pyrimidin-5-ylmethyl)-pyridin-2-yl]-amine] | ≤ 10 µM | ≤ 10 µM | ≤ 10 µM | ≤ 10 µM | –
13 | CS(=O)(=O)c1cc(Cl)ccc1CNc1ccc(Cc2c[nH]c3ncncc23)c(F)n1 [P-0060, (4-Chloro-2-methanesulfonyl-benzyl)-[6-fluoro-5-(7H-pyrrolo[2,3-d]pyrimidin-5-ylmethyl)-pyridin-2-yl]-amine] | – | ≤ 10 µM | ≤ 10 µM | ≤ 10 µM | –
14 | Cc1ccc(CNc2ccc(Cc3c[nH]c4ncncc34)c(F)n2)nc1 [P-0062, [6-Fluoro-5-(7H-pyrrolo[2,3-d]pyrimidin-5-ylmethyl)-pyridin-2-yl]-(5-methyl-pyridin-2-ylmethyl)-amine] | ≤ 10 µM | ≤ 10 µM | ≤ 10 µM | ≤ 10 µM | –
15 | Fc1nc(NCc2cccnc2C(F)(F)F)ccc1Cc1c[nH]c2ncncc12 [P-0071, [6-Fluoro-5-(7H-pyrrolo[2,3-d]pyrimidin-5-ylmethyl)-pyridin-2-yl]-(2-trifluoromethyl-pyridin-3-ylmethyl)-amine] | – | ≤ 10 µM | – | ≤ 10 µM | ≤ 10 µM
16 | Fc1cnc(Cl)cc1CNc1ccc(Cc2c[nH]c3ncncc23)c(F)n1 [P-0072, (2-Chloro-5-fluoro-pyridin-4-ylmethyl)-[6-fluoro-5-(7H-pyrrolo[2,3-d]pyrimidin-5-ylmethyl)-pyridin-2-yl]-amine] | – | ≤ 10 µM | ≤ 10 µM | ≤ 10 µM | –
17 | Fc1nc(NCc2ccnc(Cl)c2)ccc1Cc1c[nH]c2ncncc12 [P-0076, (2-Chloro-pyridin-4-ylmethyl)-[6-fluoro-5-(7H-pyrrolo[2,3-d]pyrimidin-5-ylmethyl)-pyridin-2-yl]-amine] | – | ≤ 10 µM | ≤ 10 µM | ≤ 10 µM | –
18 | CCCCc1ncc(CNc2ccc(Cc3c[nH]c4ncncc34)c(F)n2)cn1 [P-0081, (2-Butyl-pyrimidin-5-ylmethyl)-[6-fluoro-5-(7H-pyrrolo[2,3-d]pyrimidin-5-ylmethyl)-pyridin-2-yl]-amine] | – | ≤ 10 µM | ≤ 10 µM | ≤ 10 µM | –
19 | COc1cc(F)cc(CNc2ccc(Cc3c[nH]c4ncncc34)c(F)n2)c1 [P-0083, (3-Fluoro-5-methoxy-benzyl)-[6-fluoro-5-(7H-pyrrolo[2,3-d]pyrimidin-5-ylmethyl)-pyridin-2-yl]-amine] | ≤ 10 µM | ≤ 10 µM | – | ≤ 10 µM | –
20 | CCOc1ncccc1CNc1ncc(Cc2c[nH]c3ncncc23)cn1 [P-0085, (2-Ethoxy-pyridin-3-ylmethyl)-[5-(7H-pyrrolo[2,3-d]pyrimidin-5-ylmethyl)-pyrimidin-2-yl]-amine] | ≤ 10 µM | ≤ 10 µM | – | ≤ 10 µM | –

The next lines start with the values.

Row | IC50 [1] | IC50 [2] | IC50 [3] | IC50 [4] | IC50 [5] | Compound
21 | ≤ 10 µM | ≤ 10 µM | ≤ 10 µM | ≤ 10 µM | – | COc1ncc(F)cc1CNc1ncc(Cc2c[nH]c3ncncc23)cn1 [P-0022, (5-Fluoro-2-methoxy-pyridin-3-ylmethyl)-[5-(7H-pyrrolo[2,3-d]pyrimidin-5-ylmethyl)-pyrimidin-2-yl]-amine]
22 | ≤ 10 µM | ≤ 10 µM | – | ≤ 10 µM | – | Fc1nc(NCc2ccc(Cl)cn2)ccc1Cc1c[nH]c2ncncc12 [P-0027, (5-Chloro-pyridin-2-ylmethyl)-[6-fluoro-5-(7H-pyrrolo[2,3-d]pyrimidin-5-ylmethyl)-pyridin-2-yl]-amine]
23 | ≤ 10 µM | ≤ 10 µM | – | ≤ 10 µM | – | FC(F)(F)c1ccc(CNc2ncc(Cc3c[nH]c4ncncc34)cn2)cn1 [P-0030, [5-(7H-Pyrrolo[2,3-d]pyrimidin-5-ylmethyl)-pyrimidin-2-yl]-(6-trifluoromethyl-pyridin-3-ylmethyl)-amine]
24 | ≤ 10 µM | – | ≤ 10 µM | ≤ 10 µM | – | COc1ccc(OC)c(CNc2ccc(Cc3c[nH]c4ncncc34)c(F)n2)c1 [P-0038, (2,5-Dimethoxy-benzyl)-[6-fluoro-5-(7H-pyrrolo[2,3-d]pyrimidin-5-ylmethyl)-pyridin-2-yl]-amine]
25 | – | ≤ 10 µM | – | ≤ 10 µM | ≤ 10 µM | COc1cc(CNc2ccc(Cc3c[nH]c4ncncc34)c(F)n2)cc(OC)c1 [P-0065, (3,5-Dimethoxy-benzyl)-[6-fluoro-5-(7H-pyrrolo[2,3-d]pyrimidin-5-ylmethyl)-pyridin-2-yl]-amine]
26 | – | ≤ 10 µM | ≤ 10 µM | ≤ 10 µM | – | N#Cc1cc(CNc2ccc(Cc3c[nH]c4ncncc34)c(F)n2)ccn1 [P-0073, 4-{[6-Fluoro-5-(7H-pyrrolo[2,3-d]pyrimidin-5-ylmethyl)-pyridin-2-ylamino]-methyl}-pyridine-2-carbonitrile]
27 | – | ≤ 10 µM | – | ≤ 10 µM | ≤ 10 µM | Fc1nc(NCc2ccnc(C(F)(F)F)c2)ccc1Cc1c[nH]c2ncncc12 [P-0075, [6-Fluoro-5-(7H-pyrrolo[2,3-d]pyrimidin-5-ylmethyl)-pyridin-2-yl]-(2-trifluoromethyl-pyridin-4-ylmethyl)-amine]
28 | – | – | ≤ 10 µM | ≤ 10 µM | – | Fc1ncc(Cl)cc1CNc1ccc(Cc2c[nH]c3ncncc23)c(F)n1 [P-0077, (5-Chloro-2-fluoro-pyridin-3-ylmethyl)-[6-fluoro-5-(7H-pyrrolo[2,3-d]pyrimidin-5-ylmethyl)-pyridin-2-yl]-amine]
29 | – | ≤ 10 µM | ≤ 10 µM | ≤ 10 µM | – | CCc1ncc(CNc2ccc(Cc3c[nH]c4ncncc34)c(F)n2)cn1 [P-0078, (2-Ethyl-pyrimidin-5-ylmethyl)-[6-fluoro-5-(7H-pyrrolo[2,3-d]pyrimidin-5-ylmethyl)-pyridin-2-yl]-amine]
30 | ≤ 10 µM | ≤ 10 µM | – | ≤ 10 µM | – | c1cc(CNc2ncc(Cc3c[nH]c4ncncc34)cn2)cc(OC2CCCC2)n1 [P-0087, (2-Cyclopentyloxy-pyridin-4-ylmethyl)-[5-(7H-pyrrolo[2,3-d]pyrimidin-5-ylmethyl)-pyrimidin-2-yl]-amine]
